Like-named read-outs stand apart in the source and are kept apart here.
How the values were obtained:
human M5 receptor = target: T1, human M5 receptor (Homo sapiens, UniProt P08912); assay: HTRF IP-One curve shift assay, M5; assay type: cell-based
T1 construct: expressed in transfected cells
T1 sequence (P08912 1-532): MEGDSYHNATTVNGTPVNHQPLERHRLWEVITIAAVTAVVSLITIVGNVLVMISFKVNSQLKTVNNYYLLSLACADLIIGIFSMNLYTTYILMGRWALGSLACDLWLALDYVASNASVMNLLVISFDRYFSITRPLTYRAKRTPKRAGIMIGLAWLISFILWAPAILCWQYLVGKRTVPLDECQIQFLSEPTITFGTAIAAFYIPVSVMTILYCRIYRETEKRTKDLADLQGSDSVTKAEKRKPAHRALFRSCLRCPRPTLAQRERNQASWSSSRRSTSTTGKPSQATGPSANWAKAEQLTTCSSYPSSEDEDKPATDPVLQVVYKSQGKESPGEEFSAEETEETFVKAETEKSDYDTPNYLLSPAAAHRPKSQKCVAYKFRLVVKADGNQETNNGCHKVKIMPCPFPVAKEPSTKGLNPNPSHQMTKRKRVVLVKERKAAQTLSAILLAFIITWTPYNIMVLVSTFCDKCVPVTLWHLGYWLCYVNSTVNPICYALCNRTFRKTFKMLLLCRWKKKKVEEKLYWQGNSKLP
Procedure: HTRF IP-One assays were performed using frozen cell aliquots prepared from CHO-K1 cell lines stably expressing human M1, M3, or M5 receptors. Cells were frozen following typical cell freezing protocols. […] Dissociated cells were quenched in full media and collected by centrifugation at 290×g for 5 min. […] 1 mL aliquots of cells were dispensed into cryovial tubes and frozen in a controlled rate cryo-freezer container at −80° C. Cells were stored at −80° C. (or in liquid nitrogen if stored for at least six months) until the day of the assay.
On the day before the assay, frozen cells were rapidly thawed in a 37° C. water bath, brought up in 20 mL of full media, and collected via centrifugation at 290×g for 5 min. […] Next, […] of cells (10,000 cells/well) were dispensed into 384-well coming plates in triplicate. Cells were incubated overnight in a 37° C., 5% CO2 cell incubator.
Then, 2 μL of test compounds were added to the cells and incubated for 10 min at 37° C. in a 5% CO2 cell incubator. Next, 2 μL of diluted agonists serially diluted in assay buffer at 7× final assay concentration was added to assay plates. Finally, assay plates were incubated for two hours at 37° C. in a 5% CO2 cell incubator.
Six μL of IP-1 detection reagents (IP-One Gq HTRF kit, Cisbio Cat #62IPAPEJ) were dispensed to the cells. First, the plates were incubated for two hours at room temperature (IP-One detection reagents were made according to Cisbio protocol). Then, plates were read on an Envision plate reader following the Cisbio guidelines.
Raw data for all assays was transmitted directly from plate readers into the Beacon database for processing. All assay plates contained positive and negative control wells for data normalization and scaling. […] All control wells contained DMSO at a final assay concentration that matched the test compound wells.
Counts from the standard curve wells were used to generate a sigmoidal standard curve, which was used to transform the raw counts from each well on the plate (scaling control wells and compound wells) into a pmol/well IP1 value.

[1] = 26-week study of Alzheimer's disease; cited from earlier work
[2] = 25-75 mg TID, 75-225 mg TDD; cited from earlier work
[3] = M5, Emraclidine concentration 0 nM
[4] = M5, Emraclidine concentration 41.2 nM, read-out: Emax
[5] = M5, Emraclidine concentration 123 nM, read-out: Emax
[6] = M5, Emraclidine concentration 370 nM, read-out: Emax
[7] = M5, Emraclidine concentration 1110 nM, read-out: Emax
[8] = M5, Emraclidine concentration 3330 nM, read-out: Emax
[9] = M5, Emraclidine concentration […], read-out: Emax
[10] = M5, MK-4710 concentration 41.2 nM, read-out: Emax
[11] = M5, MK-4710 concentration 123 nM, read-out: Emax
[12] = M5, MK-4710 concentration 370 nM, read-out: Emax
[13] = M5, MK-4710 concentration 1110 nM, read-out: Emax
[14] = M5, MK-4710 concentration 3330 nM, read-out: Emax
[15] = M5, MK-4710 concentration […], read-out: Emax

Row | SMILES | EC50 (human M5 receptor; [3]) [nM] | Emax (human M5 receptor; [3]) [%] | Emax (human M5 receptor; [4]) [%] | Emax (human M5 receptor; [5]) [%] | Emax at […] (human M5 receptor; [6]) [%] | Emax (human M5 receptor; [7]) [%] | Emax (human M5 receptor; [8]) [%] | Emax at […] (human M5 receptor; [9]) [%] | α (cooperativity, affinity shift) (human M5 receptor; M5, M4 PAM Emraclidine) | β (cooperativity, efficacy shift) (human M5 receptor; M5, M4 PAM Emraclidine) | τ (agonist pharmacology) (human M5 receptor; M5, M4 PAM Emraclidine) | α (cooperativity, affinity shift) (human M5 receptor; M5, M4 PAM MK-4710) | β (cooperativity, efficacy shift) (human M5 receptor; M5, M4 PAM MK-4710) | τ (agonist pharmacology) (human M5 receptor; M5, M4 PAM MK-4710) | Emax (human M5 receptor; M5, MK-4710 concentration 0 nM) [%] | Emax (human M5 receptor; [10]) [%] | Emax (human M5 receptor; [11]) [%] | Emax at […] (human M5 receptor; [12]) [%] | Emax (human M5 receptor; [13]) [%] | Emax (human M5 receptor; [14]) [%] | also measured
1 | CCCCCOc1nsnc1C1=CCCCN1C [KTX-517, 3-(1-methyl-1,4,5,6-tetrahydropyridin-2-yl)-4-(pentyloxy)-1,2,5-thiadiazole] | 121 | 41.68 | 45.4 | 62.7 | 62.4 | 69.3 | 72 | 44.1 | 1.0 | 4.5 | 0.1 | 2.2 | 1.9 | 0.0 | 53.95 | 62.5 | 65.7 | 68 | 69.6 | 82.2 | EC50 (human M5 receptor; M5, Emraclidine concentration 41.2 nM): 110 nM; EC50 (human M5 receptor; M5, Emraclidine concentration 123 nM): 118 nM; EC50 (human M5 receptor; M5, Emraclidine concentration 370 nM): 161 nM; EC50 (human M5 receptor; M5, Emraclidine concentration 1110 nM): 243 nM; EC50 (human M5 receptor; M5, Emraclidine concentration 3330 nM): 153 nM; EC50 (human M5 receptor; M5, Emraclidine concentration […]): 111 nM; EC50 (human M5 receptor; M5, MK-4710 concentration 0 nM): 168 nM; Emax at […] (human M5 receptor; [15]): 54.9%
2 | CCCCCCCOc1nsnc1C1=CCCCN1C [KTX-593, 3-(heptyloxy)-4-(1-methyl-1,4,5,6-tetrahydropyridin-2-yl)-1,2,5-thiadiazole] | 403 | 63.6 | 71.8 | 68.8 | 67.4 | 66.9 | 71.9 | 67.1 | 10.6 | 1.1 | 0.0 | 1.4 | 0.8 | 0.1 | 81.82 | 78.3 | 78.8 | 76.6 | 69.7 | 77.3 | EC50 (human M5 receptor; M5, MK-4710 concentration 0 nM): 245 nM; Emax at […] (human M5 receptor; [15]): 69.7%
3 | CC1OC2(CS1)CN1CCC2CC1 (stereo not drawn) [cevimeline, Cevimeline, reference compound] | 1370 | 90.54 | 92.7 | 93.5 | 105 | 103 | 106 | 102 | 1.0 | 0.5 | 0.1 | 1.0 | 1.4 | 0.1 | 70.31 | 95.2 | 88.2 | 91.1 | 78.3 | 91.2 | EC50 (human M5 receptor; M5, MK-4710 concentration 0 nM): 3720 nM; Emax at […] (human M5 receptor; [15]): 97.3%
4 | CCCCCCOc1nsnc1C1=CCCN(C)C1 [xanomeline, reference compound] | – | 81.14 | 78.5 | 84.2 | 89 | 81.9 | 79.5 | 79.4 | – | – | 0.1 | – | – | 0.0 | 77.91 | 87 | 86.9 | 92.9 | 78.6 | 83 | dropout rate [1]: 56%; positive (psychosis), negative, and cognitive symptoms of schizophrenia [2]: improved; Emax at […] (human M5 receptor): 80%

From patent publication US20250228832A1, “METHODS FOR TREATING DISORDERS AMELIORATED BY MUSCARINIC RECEPTOR ACTIVATION” (KARUNA THERAPEUTICS, INC., priority 2022, published 2025)
